The compounds below were run against T1, HIV-1 integrase (SF1) (Human immunodeficiency virus type 1 group M subtype B, UniProt P04585, C1203S/C1427S/F1286D/F1332K/W1278D) (assay: Integrase strand-transfer scintillation proximity assay).
T1 construct: 6-histidine tag with thrombin cleavage site (N, cleaved yes); made in house; host or cells: E. coli BL21 (DE3)
Assay type: biochemical
Source text: Oligonucleotides: Oligonucleotide #1-5′-(biotin)[…]-3′ (SEQ ID NO: 1) and oligonucleotide #2-5′-[…]-3′ (SEQ ID NO: 2), were synthesized by TriLink BioTechnologies, Inc. (San Diego, Calif.). The annealed product represents preprocessed viral ds-DNA derived from the LTR U5 sequence of the viral genome. A ds-DNA control to test for non-specific interactions was made using a 3′ di-deoxy derivative of oligonucleotide #1 annealed to oligonucleotide #2. The CA overhang at the 5′ end of the non-biotinylated strand of the ds-DNA was created artificially by using a complimentary DNA oligonucleotide shortened by 2 base pairs. This configuration eliminates the requisite 3′ processing step of the integrase enzyme prior to the strand-transfer mechanism.
Host ds-DNA was prepared as an unlabeled and [^3H]-thymidine labeled product from annealed oligonucleotide #3-5-[…]-3′ (SEQ ID NO: 3), and oligonucleotide #4-5′-[…]-3′ (SEQ ID NO: 4), both synthesized by TriLink BioTechnologies, Inc. (San Diego, Calif.). The annealed product had overhanging 3′ ends of poly(dA). Host DNA was custom radiolabeled by PerkinElmer Life Sciences Inc. (Boston, Mass.) using an enzymatic method with a 12/1 ratio of [methyl-^3H]dTTP/cold ds-DNA to yield 5′-blunt end ds-DNA with a specific activity of>900 Ci/mmol. The radiolabeled product was purified using a NENSORB cartridge and stored in stabilized aqueous solution (PerkinElmer). The final radiolabeled product had six [^3H]-thymidine nucleotides at both 5′ ends of the host ds-DNA.
Reagents: Streptavidin-coated polyvinyltoluene (PVT) SPA beads were purchased from Amersham Pharmacia (Piscataway, N.J.). Cesium chloride was purchased from Shelton Scientific, Inc. (Shelton, Conn.). White polystyrene, flat bottom, non-binding surface 384-well plates were purchased from Corning. All other buffer components were purchased from Sigma (St. Louis, Mo.) unless otherwise indicated.
Enzyme Construction: Full-length HIV-1 integrase (SF1) sequence (amino acids 1–288) (SEQ ID NO: 5) was constructed in a pET 15b vector (Novagen, Madison, Wis.) with mutations outlined by Chen et al. (Chen, C-H. J. et al., PNAS 97: 8233–8238 (2000)) that facilitate solubility of the enzyme and decrease oxidation. The vector contained a T7 promoter, a 6-histidine tag at the amino terminus, and a thrombin cleavage site. Mutations C56S, W131D, F139D, F185K, and C280S were introduced using a QuickChange kit (Stratagene, San Diego, Calif.). The construct was confirmed through DNA sequencing.
Enzyme Purification: The penta-mutant was expressed in E. coli BL21 (DE3) cells and induced with 1 mM isopropyl-1 thio-β-D-galactopyranoside (IPTG) when cells reached an optical density between 0.8–1.0 at 600 nm. Cells were lysed in 20 mM HEPES (pH 7.5), 1.5 M NaCl, 5 mM imidazole, and 2 mM 2-mercaptoethanol. The enzyme was purified following standard methods for histidine tagged proteins (Jenkins, T. M. et al., Journal of Biological Chemistry 271: 7712–7718 (1996)). Specifically, cell lysate was passed over a Ni-Nta column (Qiagen, Chatsworth, Calif.) with the 6-His tagged integrase protein eluted by adding 250 mM imidazole. A G-25 Sepharose® column (Amersham Pharmacia, Piscataway, N.J.) was used to exchange the buffer prior to thrombin cleavage of the integrase protein and subsequent removal of thrombin using a benzamidine-Sepharose® 6B column. The cleaved 6-His tag was separated from the integrase using a second Ni-Nta column. The integrase was further purified with a heparin-Sepharose® column and a gradient of NaCl (0.4 to 1 M) in 20 mM HEPES (pH 7.5), 400 mM NaCl, and 1 mM DTT buffer. The purified protein was dialyzed against 20 mM HEPES (pH 7.5), 800 mM NaCl, and 1 mM DTT and concentrated by stirred cell ultrafiltration (Millipore, Bedford, Mass.) or Ultra-free spin concentrators (Millipore, Bedford, Mass.) when required. […]

SMILES | IC50 [µM]
O=C(NO)c1cc2c3ccccc3n(Cc3ccc(F)cc3)c2cn1 [Compound 1, 9-(4-Fluorobenzyl)-N-hydroxy-9H-β-carboline-3-carboxamide] | 0.234
O=C(NO)c1cc2c3ccccc3n(Cc3ccc(Cl)s3)c2cn1 [Compound 2, 9-[(5-Chlorothien-2-yl)methyl]-N-hydroxy-9H-β-carboline-3-carboxamide] | 0.494
O=C(NO)c1cc2c3ccccc3n(Cc3cccc(Cl)c3F)c2cn1 [Compound 3, 9-(3-Chloro-2-fluorobenzyl)-N-hydroxy-9H-β-carboline-3-carboxamide] | 0.4
O=C(NO)c1cc2c3ccccc3n(Cc3ccccc3)c2cn1 [Compound 4, 9-Benzyl-N-hydroxy-9H-β-carboline-3-carboxamide] | 0.281
O=C(NO)c1cc2c3ccccc3n(Cc3ccc(F)cc3F)c2cn1 [Compound 6, 9-(2,4-Difluorobenzyl)-N-hydroxy-9H-β-carboline-3-carboxamide] | 0.463
O=C(NO)c1cc2c3ccccc3n(Cc3c(F)ccc(Cl)c3F)c2cn1 [Compound 7, 9-(3-Chloro-2,6-difluorobenzyl)-N-hydroxy-9H-β-carboline-3-carboxamide] | 1.39
Nc1ccc2c(c1)c1cc(C(=O)NO)ncc1n2Cc1cccc(Cl)c1 [Compound 8, 6-Amino-9-(3-chlorobenzyl)-N-hydroxy-9H-β-carboline-3-carboxamide] | 0.713
CN(O)C(=O)c1cc2c3ccccc3n(Cc3ccc(F)cc3)c2cn1 [Compound 13, 9-(4-Fluorobenzyl)-N-hydroxy-N-methyl-9H-β-carboline-3-carboxamide] | 0.699

— patent publication US7138408B2, “HIV integrase inhibitors, pharmaceutical compositions and methods for their use” (priority 2003, dated 2006)
